According to patent publication EP3818828A1 (priority 2019, dated 2021):
Like-named read-outs stand apart in the source and are kept apart here.

Assays:
Assay type in all cases: cell-based
Botrytis cinerea = assay: Ex vivo mycelial growth inhibition, growth rate method; conditions: 1 mg/mL
Description: (§1) 3-(3',4'-methylenedioxy phenyl)-N-n-propyl acrylamide (at a purity of 99%), 3-(3',4'-methylenedioxy phenyl)-piperidine acrylate (at a purity of 99%), the control agents, 96.5% of chlorothalonil technical (non-systemic broad-spectrum fungicide), 97.2% of carbendazim technical (systemic broad-spectrum fungicide), 97.0% of procymidone technical (systemic fungicide), 96.0% of dimethomorphtechnical ((E,Z)-4-[3-(4-chlorphenyl)3-(3,4-dimethoxy phenyl)acryloyl]morpholine, systemic fungicide), 97.0% of azoxystrobin technical (systemic broad-spectrum fungicide).
(§2) The inhibition of samples for testing on the mycelial growth of plant pathogenic fungi for testing is determined with a growth rate method. 3-(3',4'-methylenedioxy phenyl)-N-n-propyl acrylamide, 3-(3',4'-methylenedioxy phenyl)-piperidine acrylate and five control agents are dissolved with dimethyl sulfoxide (DMSO), then formulated at 5-7 concentrations of different gradients for test following the trial test results, with the same concentration of DMSO as the control solvent, each treatment in triplicate. Fungal cakes with a diameter of 4 mm are taken from the edge of the colony, inoculated into the center of a PDA plate containing different agents of different concentrations and the DMSO control, with one piece of fungal cake inoculated in each plate (with a diameter of […]), and incubated in a constant temperature incubator at a temperature of 22±1.5°C. 7 days later (10-20 days may be needed for some pathogenic fungi), the diameter of the colony is measured with a cross over method according to the mycelial growth profile of the control pathogenic fungi, then the inhibition rate of mycelial growth is calculated.
(§3) The computational formula is as below: the inhibition rate of mycelial growth (%) = [(the diameter of the control colony - the diameter of the treated colony)/the diameter of the control colony] × 100.
(§4) The inhibition results of each agent at a concentration of 1 mg/mL on the mycelial growth of plant pathogenic fungi are shown in Tables 1 and 2.

C. gossypii = assay: as above; conditions: for Average Diameter of the Colony: C. gossypii; for inhibition at 1000 µg/mL: Colletotrichum gossypii, read-out: Inhibition Rate
Description: as §1, §2, §3, §4

Exserohilum turcicum = assay: as above; conditions: 1 mg/mL
Description: as §1, §2, §3, §4

F. oxysporum f. sp. lini = assay: as above; conditions: 1 mg/mL; for inhibition at 1000 µg/mL: Fusarium oxysporum
Description: as §1, §2, §3, §4

[1] = system: F. oxysporum f. sp. vasinfectum; assay: as above; conditions: 1 mg/mL; for inhibition at 1000 µg/mL: Fusarium oxysporum
Description: as §1, §2, §3, §4

Mycosphaerlla melonis = assay: as above; conditions: 1 mg/mL
Description: as §1, §2, §3, §4

Phytophthora capsici = assay: as above; conditions: Phytophthora capsici; 1 mg/mL
Description: as §1, §2, §3, §4

Sclerotinia sclerotiorum = assay: as above; conditions: 1 mg/mL
Description: as §1, §2, §3, §4

F. graminearum = assay: microbe, parasite or virus in culture; conditions: for Average Diameter of the Colony: F. graminearum, 1 mg/mL; for inhibition at 1000 µg/mL: Fusarium graminearum, read-out: Inhibition Rate
Pyricularia grisea = assay: microbe, parasite or virus in culture; conditions: for Average Diameter of the Colony: 1 mg/mL; for inhibition at 1000 µg/mL: read-out: Inhibition Rate
Phytophthora infestans [2] = assay: microbe, parasite or virus in culture; conditions: for Average Diameter of the Colony: 1 mg/mL
Phytophthora infestans [3] = conditions: Phytophthora infestas; 1 mg/mL
Colletotrichum capsici = assay: Ex vivo mycelial growth inhibition, growth rate method; conditions: 1 mg/mL
Description: as §1, §2, §3, §4

Coniella diplodiella = assay: as above; conditions: 1 mg/mL
Description: as §1, §2, §3, §4

F. verticillioide = assay: as above; conditions: 1 mg/mL
Description: as §1, §2, §3, §4

Pythium aphanidermatum = assay: as above; conditions: 1 mg/mL
Description: as §1, §2, §3, §4

Rhizoctonia solani = assay: as above; conditions: Rhizoctonia solani; 1 mg/mL
Description: as §1, §2, §3, §4

Thanatephorus cucumeris = assay: as above; conditions: 1 mg/mL
Description: as §1, §2, §3, §4

Fusarium graminearum = assay: microbe, parasite or virus in culture

Row | Structure (SMILES) | Average Diameter of the Colony (Botrytis cinerea) [cm] | inhibition at 1000 µg/mL (Botrytis cinerea) [%] | Average Diameter of the Colony (C. gossypii; 1 mg/mL) [cm] | Average Diameter of the Colony (Exserohilum turcicum) [cm] | inhibition at 1000 µg/mL (Exserohilum turcicum) [%] | Average Diameter of the Colony (F. oxysporum f. sp. lini) [cm] | inhibition at 1000 µg/mL (F. oxysporum f. sp. lini) [%] | Average Diameter of the Colony [1] [cm] | inhibition at 1000 µg/mL [1] [%] | Average Diameter of the Colony (Mycosphaerlla melonis) [cm] | inhibition at 1000 µg/mL (Mycosphaerlla melonis) [%] | Average Diameter of the Colony (Phytophthora capsici) [cm] | inhibition at 1000 µg/mL (Phytophthora capsici) [%] | Average Diameter of the Colony (Sclerotinia sclerotiorum) [cm] | inhibition at 1000 µg/mL (Sclerotinia sclerotiorum) [%] | Average Diameter of the Colony (F. graminearum) [cm] | inhibition at 1000 µg/mL (F. graminearum) [%] | Average Diameter of the Colony (Pyricularia grisea) [cm] | inhibition at 1000 µg/mL (Pyricularia grisea) [%] | Average Diameter of the Colony (Phytophthora infestans [2]) [cm] | other results
1 | CO/C=C(/C(=O)OC)c1ccccc1Oc1cc(Oc2ccccc2C#N)ncn1 [Azoxystrobin, azoxystrobin] | 4.33 | 51.9 | 5.37 | 6.50 | 27.8 | 5.93 | 34.1 | 3.03 | 66.3 | 3.93 | 56.3 | 6.70 | 25.6 | 4.40 | 51.1 | 6.23 | 30.8 | 4.67 | 48.1 | 0.00 | inhibition at 1000 µg/mL (C. gossypii): 40.3%; inhibition at 1000 µg/mL (Phytophthora infestans [2]; read-out: Inhibition Rate): 100%
2 | COC(=O)Nc1nc2ccccc2[nH]1 [Carbendazim, carbendazim] | 0.00 | 100 | 0.00 | 9.00 | 0 | 0.00 | 100 | 0.00 | 100 | 0.00 | 100 | 0.00 | 100 | 0.00 | 100 | 1.17 | 87 | 0.00 | 100 | 6.80 | Average Diameter of the Colony (Phytophthora infestans [3]): 0.00 cm; inhibition at 1000 µg/mL (C. gossypii; C. cossypii, 1 mg/mL): 100%; Average Diameter of the Colony (Colletotrichum capsici): 0.00 cm; inhibition at 1000 µg/mL (Colletotrichum capsici; Colletotrichum truncatum): 100%; Average Diameter of the Colony (Coniella diplodiella): 0.00 cm; inhibition at 1000 µg/mL (Coniella diplodiella): 100%; Average Diameter of the Colony (F. verticillioide): 0.00 cm; inhibition at 1000 µg/mL (F. verticillioide): 100%; Average Diameter of the Colony (Pythium aphanidermatum): 0.00 cm; inhibition at 1000 µg/mL (Pythium aphanidermatum): 100%; Average Diameter of the Colony (Rhizoctonia solani): 0.00 cm; inhibition at 1000 µg/mL (Rhizoctonia solani): 100%; Average Diameter of the Colony (Thanatephorus cucumeris): 0.00 cm; inhibition at 1000 µg/mL (Thanatephorus cucumeris): 100%; Average Diameter of the Colony (Fusarium graminearum; 1 mg/mL): 0.00 cm; inhibition at 1000 µg/mL (Fusarium graminearum; read-out: Inhibition Rate): 100%
